Experimental data published in patent publication US20080188506A1, “SPIROINDOLINONE DERIVATIVES” (priority 2007, published 2008).

These compounds were tested against interaction between p53 and MDM2 proteins (recombinant GST-tagged MDM2 / p53 peptide) (Homo sapiens, UniProt Q00987) (assay: HTRF assay of inhibition of the p53-MDM2 interaction (GST-MDM2 / biotinylated p53 peptide)). Settings: 0.2% BSA, 37° C. 1 h.
Assay type: binding
Protocol: The ability of the compounds to inhibit the interaction between p53 and MDM2 proteins was measured by an HTRF (homogeneous time-resolved fluorescence) assay in which recombinant GST-tagged MDM2 binds to a peptide that resembles the MDM2-interacting region of p53 (Lane et al.). Binding of GST-MDM2 protein and p53-peptide (biotinylated on its N-terminal end) is registered by the FRET (fluorescence resonance energy transfer) between Europium (Eu)-labeled anti-GST antibody and streptavidin-conjugated Allophycocyanin (APC).
Test is performed in black flat-bottom 384-well plates (Costar) in a total volume of […] containing:90 nM biotinylate peptide, 160 ng/ml GST-MDM2, 20 nM streptavidin-APC (PerkinElmerWallac), 2 nM Eu-labeled anti-GST-antibody (PerkinElmerWallac), 0.2% bovine serum albumin (BSA), 1 mM dithiothreitol (DTT) and 20 mM […] (TBS) buffer as follows: Add 10 uL of GST-MDM2 (640 ng/ml working solution) in reaction buffer to each well. Add 10 uL diluted compounds (1:5 dilution in reaction buffer) to each well, mix by shaking. Add 20 uL biotinylated p53 peptide (180 nM working solution) in reaction buffer to each well and mix on shaker. Incubate at 37° C. for 1 h. Add 20 uL streptavidin-APC and Eu-anti-GST antibody mixture (6 nM Eu-anti-GST and 60 nM streptavidin-APC working solution) in TBS buffer with 0.2% BSA, shake at room temperature for 30 minutes and read using a TRF-capable plate reader at 665 and 615 nm (Victor 5, Perkin ElmerWallac). If not specified, the reagents were purchased from Sigma Chemical Co.

Sequence of interaction between p53 and MDM2 proteins (recombinant GST-tagged MDM2 / p53 peptide) (Q00987 whole entry): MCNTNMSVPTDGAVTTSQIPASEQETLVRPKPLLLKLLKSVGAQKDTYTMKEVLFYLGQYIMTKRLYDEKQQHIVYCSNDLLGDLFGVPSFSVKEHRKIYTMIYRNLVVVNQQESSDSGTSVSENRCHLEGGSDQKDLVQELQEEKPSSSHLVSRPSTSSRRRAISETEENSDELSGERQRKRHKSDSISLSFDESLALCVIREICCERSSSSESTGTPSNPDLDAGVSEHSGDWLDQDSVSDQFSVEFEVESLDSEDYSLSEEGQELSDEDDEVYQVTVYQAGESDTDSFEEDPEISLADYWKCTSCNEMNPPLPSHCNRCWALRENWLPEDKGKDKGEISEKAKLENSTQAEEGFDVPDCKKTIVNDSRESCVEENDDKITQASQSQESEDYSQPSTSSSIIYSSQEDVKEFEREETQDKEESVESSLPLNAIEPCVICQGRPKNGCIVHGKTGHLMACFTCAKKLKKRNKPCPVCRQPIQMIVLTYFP

IC50 [µM] | Compound
5.21 | COc1cccc([C@H]2NCC[C@@H](c3cccc(Cl)c3)[C@]23C(=O)Nc2cc(Cl)ccc23)c1 (racemic) [Example 8c, racemic (2′R, 3R, 4′S)-6-chloro-4′-(3-chlorophenyl)-2′-(3-methoxyphenyl) spiro[3H-indole-3,3′-piperidine]-2(1H)-one]
6.95 | O=C1Nc2cc(Cl)ccc2[C@]12[C@@H](c1ccccc1C(F)(F)F)NCC[C@H]2c1cccc(Cl)c1 (racemic) [Example 11c]
2.31 | COc1ccc(F)cc1[C@H]1NCC[C@@H](c2cccc(Cl)c2)[C@]12C(=O)Nc1cc(Cl)ccc12 (racemic) [Example 16c, racemic (2′R, 3R, 4′S)-6-chloro-4′-(3-chlorophenyl)-2′-(5-fluoro-2-methoxyphenyl) spiro[3H-indole-3,3′-piperidine]-2(1H)-one]
1.03 | C=C(CC(C)C)[C@H]1n2cnnc2C[C@@H](c2cccc(Cl)c2)[C@]12C(=O)Nc1cc(Cl)ccc12 (racemic) [Example 44h]
